Data: PMC5570892, “Indole-based perenosins as highly potent HCl transporters and potential anti-cancer agents” (Scientific Reports, 2017)
Values joined by “and” are separate entries in the source; they are usually repeats but may differ in a detail not shown here. Identical values can stand only once.

Assay: NMDG-Cl assay by HPTS (H^+/Cl^− symport)
Assay type: biochemical
Settings: for EC50 NMDG-Cl (by HPTS): H^+/Cl^− symport, no gramicidin or oleic acid; for EC50 (Gra) NMDG-Cl (by HPTS): in the presence of gramicidin 0.1 mol%; for EC50 (OA) NMDG-Cl (by HPTS): in the presence of oleic acid 2 mol%
Method: The selectivity for Cl^−>H^+/OH^− transport of the perenosins was quantified using a modified NMDG-Cl assay. Unilamellar vesicles loaded with HPTS (1 mM) and N-methyl-D-glucamine chloride (NMDG-Cl) (100 mM), buffered to pH 7 with HEPES (10 mM) were prepared. Free base NMDG (0.5 M) was added increasing the extravesicular solution to pH 8, and the dissipation of this gradient following the addition of receptors was monitored. Dissipation of pH gradient indicates H^+/Cl^− symport (or the functionally equivalent OH^−/Cl^− exchange) mediated by perenosins. Gramicidin D (Gra) is a proton channel added to facilitate H^+ transport. The addition of oleic acid (OA), a naturally occurring fatty acid found in cell membranes, allowed the investigation of the enhancement in H^+/Cl^− symport, in the presence of oleic acid. Anion transporters can assist the fatty acid flip-flop mechanism by taking on the role of a flippase for fatty acid anions via binding to the anionic carboxylate head group, masking the charge and allowing rapid passage of the head group through the lipid bilayer. This in turn accelerates the natural proton transport mediated by fatty acids in biological membranes.
For all cases EC50 values were obtained from dose-response experiments and subsequent Hill analysis (see Supplementary Information). Chloride selectivity was then quantified to give a selectivity factor (SG), shown in Table 2, using the ratio of the EC50 values. From the previous cationophore coupled assays, it was evident that the capability of perenosins to facilitate electrogenic chloride transport is negligible, therefore an absence in selectivity for Cl^−>H^+/OH^− was expected. […] FOA values for the overall H^+/Cl^− cotransport rate were calculated for compounds 1d and 2–6 in the presence of OA and are also shown in Table 2. […] In the presence of fatty acids, an alternative pathway that involves the diffusion of the fatty acid complex and free fatty acids could replace this step. […] This may be likely due to the competitive binding of the receptors to the carboxylate head group so inhibiting chloride binding and transport.
S10.8. General Procedure for the HPTS Assay
Unilamellar vesicles were prepared using previously reported literature procedures16. A lipid film of POPC (1-palmitoyl-2-oleoyl-sn-glycero-3-phosphocholine) was prepared from a chloroform solution under reduced pressure and then dried under vacuum for 4 or more hours. The lipid film was rehydrated by vortexing with an internal solution containing HPTS (1 mM). The lipid suspension was then subjected to 9 freeze-thaw cycles and left to rest at room temperature for 30 minutes. After this, the suspension was extruded 25 times through a 200 nm polycarbonate membrane resulting in unilamellar vesicles of a mean diameter of 200 nm. The un-encapsulated HPTS was removed by size exclusion chromatography using a sephadex G-25 column and an external solution eluent that does not contain HPTS. The lipid solution obtained after dialysis was diluted to a standard volume (usually 10 mL) with the external buffered solution to obtain a lipid stock of known concentration.
In each experiment identical internal and external solutions were used with various salts (NMDG -Cl or sodium gluconate) buffered with HEPES (10 mM) to pH 7.0, and are detailed below.
The lipid stock was diluted with the external buffer solution to a standard volume (2.5 mL), to afford a solution with a lipid concentration of 0.1 mM. The compounds were added as a DMSO solution (10 μL) and when an assisting ionophore (gramicidin) or oleic acid (a naturally occurring monosaturated fatty acid) was used this was also added as a DMSO solution (5 μL, 0.1 mol% or 2 mol% respectively (with respect to lipid)). To start the experiment, after the addition of the compounds, a base pulse (25 μL, of NMDG or TBAOH (0.5 M)) was spiked in to generate a pH gradient across the membrane. […]

SMILES	EC50 NMDG-Cl (by HPTS)	EC50 (Gra) NMDG-Cl (by HPTS)	EC50 (OA) NMDG-Cl (by HPTS)
CCCCCc1c(C)[nH]c(/C=N/c2cc(C)cc3cc[nH]c23)c1C [Perenosin 5]	0.00231 mol%	0.00095 mol%	0.00273 mol%
CCCc1cc2cc(C)cc(/N=C/c3[nH]c(C)cc3C)c2[nH]1 [Perenosin 4]	0.00069 mol%	0.00038 mol%	0.00008 mol%
CCCCCc1cc2cc(C)cc(/N=C/c3[nH]c(C)c(CCCCC)c3C)c2[nH]1 [Perenosin 6]	0.00249 mol%	0.00211 mol%	0.00208 mol%
CCCCCc1cc(/N=C/c2[nH]c(C)cc2C)c2[nH]ccc2c1 [Perenosin 1d]	0.0107 mol% and 0.01073 mol%	0.00656 mol%	0.00925 mol%
CCCCCc1cc2cc(C(F)(F)F)cc(/N=C/c3[nH]c(C)cc3C)c2[nH]1 [Perenosin 3]	0.01151 mol%	0.00879 mol%	0.04912 mol%
CCCCCc1cc2cc(C)cc(/N=C/c3[nH]c(C)cc3C)c2[nH]1 [Perenosin 2]	0.00062 mol%	0.00037 mol%	0.00085 mol%
